The source made the active and inactive calls. For most assays here, no stated cut-off is given here; in the data, actives have a measured Kd and inactives only a lower limit.
Experiments:
[1] = molecular target: T1, Serine/threonine-protein kinase Nek9 (Homo sapiens, UniProt Q8TD19)
T1 sequence (Q8TD19 whole entry): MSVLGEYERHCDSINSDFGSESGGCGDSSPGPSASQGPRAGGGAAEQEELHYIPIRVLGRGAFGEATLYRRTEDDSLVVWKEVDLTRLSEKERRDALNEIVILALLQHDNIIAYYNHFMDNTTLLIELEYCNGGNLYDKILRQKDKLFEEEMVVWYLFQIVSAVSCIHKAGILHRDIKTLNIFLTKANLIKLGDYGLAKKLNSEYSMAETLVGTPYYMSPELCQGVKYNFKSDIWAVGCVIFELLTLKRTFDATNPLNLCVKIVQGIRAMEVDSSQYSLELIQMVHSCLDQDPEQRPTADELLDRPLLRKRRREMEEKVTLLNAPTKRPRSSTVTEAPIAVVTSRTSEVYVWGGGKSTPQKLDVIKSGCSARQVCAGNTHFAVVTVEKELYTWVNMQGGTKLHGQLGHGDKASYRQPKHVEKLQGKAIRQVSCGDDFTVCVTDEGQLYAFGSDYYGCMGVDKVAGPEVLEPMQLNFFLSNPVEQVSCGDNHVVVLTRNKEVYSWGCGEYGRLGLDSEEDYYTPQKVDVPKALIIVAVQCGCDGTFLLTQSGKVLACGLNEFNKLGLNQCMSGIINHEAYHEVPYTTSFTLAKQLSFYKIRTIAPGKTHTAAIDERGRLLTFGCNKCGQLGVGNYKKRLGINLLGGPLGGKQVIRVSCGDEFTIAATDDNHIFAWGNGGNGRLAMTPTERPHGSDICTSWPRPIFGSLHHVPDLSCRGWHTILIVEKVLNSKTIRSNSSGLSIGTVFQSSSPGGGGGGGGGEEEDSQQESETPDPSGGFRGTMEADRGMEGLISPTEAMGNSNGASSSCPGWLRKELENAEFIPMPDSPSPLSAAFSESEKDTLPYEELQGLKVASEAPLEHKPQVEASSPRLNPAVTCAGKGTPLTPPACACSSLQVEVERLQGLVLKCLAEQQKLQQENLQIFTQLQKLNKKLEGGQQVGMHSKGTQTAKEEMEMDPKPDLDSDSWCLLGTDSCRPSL

[2] = molecular target: T2, ATP-dependent 6-phosphofructokinase, platelet type (Homo sapiens, UniProt Q01813)
T2 sequence (Q01813 whole entry): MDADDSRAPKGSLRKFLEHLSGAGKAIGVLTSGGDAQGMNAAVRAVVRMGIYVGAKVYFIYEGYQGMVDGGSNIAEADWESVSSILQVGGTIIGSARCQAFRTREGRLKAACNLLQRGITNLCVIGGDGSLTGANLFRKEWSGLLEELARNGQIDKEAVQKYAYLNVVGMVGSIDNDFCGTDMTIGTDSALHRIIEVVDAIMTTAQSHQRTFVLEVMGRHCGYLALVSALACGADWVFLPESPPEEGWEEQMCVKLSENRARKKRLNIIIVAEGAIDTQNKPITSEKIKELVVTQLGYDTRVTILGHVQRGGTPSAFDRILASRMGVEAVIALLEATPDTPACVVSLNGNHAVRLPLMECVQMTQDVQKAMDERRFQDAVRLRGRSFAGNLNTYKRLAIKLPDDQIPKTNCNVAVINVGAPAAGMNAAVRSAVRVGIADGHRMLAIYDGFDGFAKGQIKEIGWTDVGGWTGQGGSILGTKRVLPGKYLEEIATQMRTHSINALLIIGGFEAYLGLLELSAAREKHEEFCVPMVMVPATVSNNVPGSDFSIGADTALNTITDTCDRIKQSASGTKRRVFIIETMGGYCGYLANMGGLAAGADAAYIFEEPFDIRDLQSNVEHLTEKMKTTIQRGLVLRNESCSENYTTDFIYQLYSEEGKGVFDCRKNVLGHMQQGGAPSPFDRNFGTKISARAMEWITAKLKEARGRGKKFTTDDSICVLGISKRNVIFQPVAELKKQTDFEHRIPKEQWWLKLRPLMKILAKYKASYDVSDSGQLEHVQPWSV

[3] = molecular target: T3, Dual specificity mitogen-activated protein kinase kinase 5 (Homo sapiens, UniProt Q13163)
T3 sequence (Q13163 whole entry): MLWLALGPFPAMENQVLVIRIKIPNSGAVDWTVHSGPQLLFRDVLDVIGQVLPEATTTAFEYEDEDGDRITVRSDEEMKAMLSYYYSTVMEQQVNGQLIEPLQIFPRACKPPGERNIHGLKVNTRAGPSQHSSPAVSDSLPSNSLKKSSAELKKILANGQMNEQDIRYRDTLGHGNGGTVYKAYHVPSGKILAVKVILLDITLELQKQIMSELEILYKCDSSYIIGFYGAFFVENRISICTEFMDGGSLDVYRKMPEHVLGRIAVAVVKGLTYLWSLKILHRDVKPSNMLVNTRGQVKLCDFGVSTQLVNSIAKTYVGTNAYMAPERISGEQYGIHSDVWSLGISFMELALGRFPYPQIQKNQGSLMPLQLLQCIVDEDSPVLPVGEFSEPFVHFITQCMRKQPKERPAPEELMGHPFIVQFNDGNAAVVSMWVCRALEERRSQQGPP

[4] = molecular target: Serine/threonine-protein kinase N1 (Homo sapiens, UniProt Q16512)
[5] = molecular target: Ribosomal protein S6 kinase alpha-3 (Homo sapiens, UniProt P51812)
[6] = molecular target: Mitogen-activated protein kinase kinase kinase kinase 1 (Homo sapiens, UniProt Q92918)
[7] = molecular target: RAC-gamma serine/threonine-protein kinase (Homo sapiens, UniProt Q9Y243)
[8] = molecular target: TRAF2 and NCK-interacting protein kinase (Homo sapiens, UniProt Q9UKE5)
[9] = molecular target: T4, EKC/KEOPS complex subunit TP53RK (Homo sapiens, UniProt Q96S44)
T4 sequence (Q96S44 whole entry): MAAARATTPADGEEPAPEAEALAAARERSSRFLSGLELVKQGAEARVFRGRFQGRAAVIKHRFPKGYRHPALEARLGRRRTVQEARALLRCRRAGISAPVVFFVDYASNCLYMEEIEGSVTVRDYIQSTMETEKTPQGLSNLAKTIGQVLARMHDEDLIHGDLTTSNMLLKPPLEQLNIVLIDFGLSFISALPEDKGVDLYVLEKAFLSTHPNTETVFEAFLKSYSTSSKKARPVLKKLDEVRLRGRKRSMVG

[10] = molecular target: Cyclin-dependent kinase 7 (Homo sapiens, UniProt P50613)
[11] = molecular target: Eukaryotic translation initiation factor 2-alpha kinase 1 (Homo sapiens, UniProt Q9BQI3)
[12] = molecular target: ATP-dependent RNA helicase DDX3X (Homo sapiens, UniProt O00571)
ATP-dependent RNA helicase DDX3X, sequence (O00571 whole entry): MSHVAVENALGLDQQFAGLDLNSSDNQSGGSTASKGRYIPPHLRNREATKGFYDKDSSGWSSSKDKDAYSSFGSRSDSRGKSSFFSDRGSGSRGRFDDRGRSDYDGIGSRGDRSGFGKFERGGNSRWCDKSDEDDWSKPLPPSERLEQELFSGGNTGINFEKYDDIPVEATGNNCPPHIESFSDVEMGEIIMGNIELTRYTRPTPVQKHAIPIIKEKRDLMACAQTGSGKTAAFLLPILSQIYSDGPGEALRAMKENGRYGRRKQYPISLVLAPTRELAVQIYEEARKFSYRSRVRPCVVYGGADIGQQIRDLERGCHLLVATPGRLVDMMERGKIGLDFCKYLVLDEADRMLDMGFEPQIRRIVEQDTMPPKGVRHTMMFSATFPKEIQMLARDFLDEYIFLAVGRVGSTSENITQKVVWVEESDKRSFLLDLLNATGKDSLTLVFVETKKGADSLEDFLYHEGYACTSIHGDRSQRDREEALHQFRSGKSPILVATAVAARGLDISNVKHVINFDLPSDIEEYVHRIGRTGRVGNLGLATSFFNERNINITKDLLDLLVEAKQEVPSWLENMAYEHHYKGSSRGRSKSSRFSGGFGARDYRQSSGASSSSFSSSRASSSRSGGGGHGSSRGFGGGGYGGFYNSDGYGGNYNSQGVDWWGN

Mitogen-activated protein kinase kinase kinase kinase 1, sequence (Q92918 whole entry): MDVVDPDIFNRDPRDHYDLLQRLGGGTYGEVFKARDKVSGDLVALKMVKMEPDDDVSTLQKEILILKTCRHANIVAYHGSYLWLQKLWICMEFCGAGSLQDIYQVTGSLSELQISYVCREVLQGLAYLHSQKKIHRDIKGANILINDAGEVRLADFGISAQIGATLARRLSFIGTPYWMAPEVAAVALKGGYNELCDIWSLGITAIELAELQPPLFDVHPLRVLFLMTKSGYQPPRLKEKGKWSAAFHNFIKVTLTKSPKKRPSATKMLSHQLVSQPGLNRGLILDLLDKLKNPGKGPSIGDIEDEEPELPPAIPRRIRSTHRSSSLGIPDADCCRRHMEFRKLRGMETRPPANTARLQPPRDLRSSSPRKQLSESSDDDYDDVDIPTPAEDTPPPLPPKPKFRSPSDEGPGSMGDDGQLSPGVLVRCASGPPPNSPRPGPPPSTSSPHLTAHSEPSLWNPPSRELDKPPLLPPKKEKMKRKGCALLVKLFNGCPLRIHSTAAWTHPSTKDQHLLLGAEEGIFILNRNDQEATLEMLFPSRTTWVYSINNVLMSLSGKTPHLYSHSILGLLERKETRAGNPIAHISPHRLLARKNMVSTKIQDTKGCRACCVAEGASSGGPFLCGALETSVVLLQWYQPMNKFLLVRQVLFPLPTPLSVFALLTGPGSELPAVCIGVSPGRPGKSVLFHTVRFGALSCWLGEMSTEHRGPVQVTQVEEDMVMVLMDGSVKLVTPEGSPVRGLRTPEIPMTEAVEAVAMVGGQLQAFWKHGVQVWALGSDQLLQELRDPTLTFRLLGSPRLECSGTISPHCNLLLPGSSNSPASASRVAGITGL
TRAF2 and NCK-interacting protein kinase, sequence (Q9UKE5 whole entry): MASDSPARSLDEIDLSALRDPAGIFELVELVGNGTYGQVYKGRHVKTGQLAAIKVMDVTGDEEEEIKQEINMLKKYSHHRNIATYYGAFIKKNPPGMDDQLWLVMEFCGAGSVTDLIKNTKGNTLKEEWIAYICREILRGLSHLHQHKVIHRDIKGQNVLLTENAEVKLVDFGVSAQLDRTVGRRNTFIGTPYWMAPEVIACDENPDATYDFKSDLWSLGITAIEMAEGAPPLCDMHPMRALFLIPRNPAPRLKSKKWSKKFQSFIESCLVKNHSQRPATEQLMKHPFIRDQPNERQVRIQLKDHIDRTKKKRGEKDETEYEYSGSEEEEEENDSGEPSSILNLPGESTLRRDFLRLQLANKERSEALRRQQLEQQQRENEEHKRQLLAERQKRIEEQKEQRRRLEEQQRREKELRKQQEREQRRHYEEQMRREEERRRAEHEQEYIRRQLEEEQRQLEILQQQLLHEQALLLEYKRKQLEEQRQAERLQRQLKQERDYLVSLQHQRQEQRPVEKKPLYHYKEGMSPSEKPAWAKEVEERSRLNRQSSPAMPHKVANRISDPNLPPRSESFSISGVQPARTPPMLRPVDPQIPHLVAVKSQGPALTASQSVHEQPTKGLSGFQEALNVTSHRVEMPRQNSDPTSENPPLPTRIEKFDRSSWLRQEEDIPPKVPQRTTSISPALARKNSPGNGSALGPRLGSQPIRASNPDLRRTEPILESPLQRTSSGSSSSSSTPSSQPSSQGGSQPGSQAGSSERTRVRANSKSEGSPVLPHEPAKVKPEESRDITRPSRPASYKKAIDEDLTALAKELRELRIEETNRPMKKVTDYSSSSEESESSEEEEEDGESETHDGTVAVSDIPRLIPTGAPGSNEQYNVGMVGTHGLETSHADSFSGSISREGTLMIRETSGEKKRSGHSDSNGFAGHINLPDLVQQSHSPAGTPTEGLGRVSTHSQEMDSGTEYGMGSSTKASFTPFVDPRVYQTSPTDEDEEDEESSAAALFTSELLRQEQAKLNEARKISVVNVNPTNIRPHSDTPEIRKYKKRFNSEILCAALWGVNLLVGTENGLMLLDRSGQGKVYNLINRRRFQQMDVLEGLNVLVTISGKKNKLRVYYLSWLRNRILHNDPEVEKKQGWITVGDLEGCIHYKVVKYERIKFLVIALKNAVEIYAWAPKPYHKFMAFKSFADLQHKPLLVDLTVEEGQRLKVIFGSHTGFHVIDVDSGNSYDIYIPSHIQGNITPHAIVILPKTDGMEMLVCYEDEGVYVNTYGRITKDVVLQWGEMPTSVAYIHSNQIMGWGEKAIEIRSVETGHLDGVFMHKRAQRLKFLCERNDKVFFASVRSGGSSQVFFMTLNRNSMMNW
Eukaryotic translation initiation factor 2-alpha kinase 1, sequence (Q9BQI3 whole entry): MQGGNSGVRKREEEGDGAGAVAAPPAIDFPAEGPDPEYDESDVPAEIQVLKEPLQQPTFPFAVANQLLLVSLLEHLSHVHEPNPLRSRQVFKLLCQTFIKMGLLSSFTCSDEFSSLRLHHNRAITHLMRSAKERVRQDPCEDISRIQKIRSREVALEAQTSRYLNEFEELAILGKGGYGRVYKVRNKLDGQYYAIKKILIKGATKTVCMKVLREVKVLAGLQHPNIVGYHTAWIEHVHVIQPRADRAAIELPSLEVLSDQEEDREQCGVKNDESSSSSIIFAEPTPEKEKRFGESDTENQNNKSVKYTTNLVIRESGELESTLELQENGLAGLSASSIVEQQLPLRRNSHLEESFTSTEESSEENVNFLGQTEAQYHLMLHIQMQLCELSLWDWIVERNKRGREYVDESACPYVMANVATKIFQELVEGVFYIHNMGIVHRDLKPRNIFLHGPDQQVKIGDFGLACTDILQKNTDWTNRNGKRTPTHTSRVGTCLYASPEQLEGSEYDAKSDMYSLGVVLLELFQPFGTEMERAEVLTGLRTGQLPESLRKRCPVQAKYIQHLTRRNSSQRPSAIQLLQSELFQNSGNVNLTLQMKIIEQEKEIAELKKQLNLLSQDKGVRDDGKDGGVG
RAC-gamma serine/threonine-protein kinase, sequence (Q9Y243 whole entry): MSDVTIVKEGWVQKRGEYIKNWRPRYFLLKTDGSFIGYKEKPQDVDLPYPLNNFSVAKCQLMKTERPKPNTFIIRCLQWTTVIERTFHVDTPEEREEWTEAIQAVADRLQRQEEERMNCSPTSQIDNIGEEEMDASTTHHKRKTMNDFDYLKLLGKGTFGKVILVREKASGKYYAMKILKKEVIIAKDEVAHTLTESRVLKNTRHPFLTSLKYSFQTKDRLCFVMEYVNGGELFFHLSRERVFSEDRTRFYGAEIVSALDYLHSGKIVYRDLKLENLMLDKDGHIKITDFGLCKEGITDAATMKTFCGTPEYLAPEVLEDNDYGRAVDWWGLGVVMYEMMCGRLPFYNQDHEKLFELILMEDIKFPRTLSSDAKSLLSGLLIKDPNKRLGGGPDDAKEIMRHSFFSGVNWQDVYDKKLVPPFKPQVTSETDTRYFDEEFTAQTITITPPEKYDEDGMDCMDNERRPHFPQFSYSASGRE
Cyclin-dependent kinase 7, sequence (P50613 whole entry): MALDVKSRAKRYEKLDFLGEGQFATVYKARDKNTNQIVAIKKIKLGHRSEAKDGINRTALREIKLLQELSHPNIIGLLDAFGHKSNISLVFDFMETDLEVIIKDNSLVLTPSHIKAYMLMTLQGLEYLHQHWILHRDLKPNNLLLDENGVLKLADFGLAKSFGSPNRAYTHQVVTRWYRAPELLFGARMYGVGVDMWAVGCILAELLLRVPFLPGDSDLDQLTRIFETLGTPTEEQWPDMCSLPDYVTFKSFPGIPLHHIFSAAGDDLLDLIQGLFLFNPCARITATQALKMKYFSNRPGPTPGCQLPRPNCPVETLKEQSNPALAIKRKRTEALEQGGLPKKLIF
Ribosomal protein S6 kinase alpha-3, sequence (P51812 whole entry): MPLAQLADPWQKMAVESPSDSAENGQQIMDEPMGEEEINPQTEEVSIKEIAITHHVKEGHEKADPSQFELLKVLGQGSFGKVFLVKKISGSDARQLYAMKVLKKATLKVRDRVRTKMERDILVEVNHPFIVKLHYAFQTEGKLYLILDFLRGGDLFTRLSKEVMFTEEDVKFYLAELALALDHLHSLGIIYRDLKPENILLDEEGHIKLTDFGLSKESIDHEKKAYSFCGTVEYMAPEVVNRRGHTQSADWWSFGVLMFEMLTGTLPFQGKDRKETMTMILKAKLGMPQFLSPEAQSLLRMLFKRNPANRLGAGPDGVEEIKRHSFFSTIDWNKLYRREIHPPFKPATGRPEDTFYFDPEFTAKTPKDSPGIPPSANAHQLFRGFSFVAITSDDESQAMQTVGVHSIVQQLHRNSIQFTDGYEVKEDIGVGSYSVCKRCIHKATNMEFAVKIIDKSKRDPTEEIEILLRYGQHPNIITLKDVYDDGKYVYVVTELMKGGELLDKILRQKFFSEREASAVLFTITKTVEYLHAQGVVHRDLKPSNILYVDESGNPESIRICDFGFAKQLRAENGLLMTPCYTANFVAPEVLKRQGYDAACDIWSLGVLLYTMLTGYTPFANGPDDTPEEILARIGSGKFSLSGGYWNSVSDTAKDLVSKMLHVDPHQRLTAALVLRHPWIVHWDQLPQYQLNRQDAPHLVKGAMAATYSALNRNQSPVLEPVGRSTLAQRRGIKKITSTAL

Kd [2]	Kd [3]	Kd [4]	Kd [5]	Kd [6]	Kd [7]	Kd [8]	Kd [9]	Kd [10]	Kd [11]	Kd [12]	Compound	Kd [1]
> 30 µM (inactive)	> 30 µM (inactive)	> 30 µM (inactive)	> 30 µM (inactive)	> 30 µM (inactive)	> 30 µM (inactive)	> 30 µM (inactive)	> 30 µM (inactive)	> 30 µM (inactive)	> 30 µM (inactive)	> 30 µM (inactive)	S=C(NCc1ccc2c(c1)OCO2)N1CCN(c2ncnc3c2oc2ccccc23)CC1 [AMUVATINIB]	> 30 µM (inactive)
> 30 µM (inactive)	> 30 µM (inactive)	> 30 µM (inactive)	> 30 µM (inactive)	> 30 µM (inactive)	0.006 µM	> 30 µM (inactive)	> 30 µM (inactive)	> 30 µM (inactive)	> 30 µM (inactive)	> 30 µM (inactive)	COc1cc2ncnc3c2cc1OCCCCCN(C)Cc1ccc(Br)cc1N3 [JNJ-26483327]	> 30 µM (inactive)
> 30 µM (inactive)	> 30 µM (inactive)	> 30 µM (inactive)	> 30 µM (inactive)	> 30 µM (inactive)	> 30 µM (inactive)	> 30 µM (inactive)	> 30 µM (inactive)	> 30 µM (inactive)	> 30 µM (inactive)	> 30 µM (inactive)	COc1cc2ncnc(Nc3ccc(F)c(Cl)c3)c2cc1NC(=O)/C=C/CN1CCCCC1 [DACOMITINIB ANHYDROUS]	> 30 µM (inactive)
> 30 µM (inactive)	> 30 µM (inactive)	> 30 µM (inactive)	> 30 µM (inactive)	> 30 µM (inactive)	> 30 µM (inactive)	> 30 µM (inactive)	> 30 µM (inactive)	> 30 µM (inactive)	> 30 µM (inactive)	> 30 µM (inactive)	O=C(NC[C@H](O)CO)c1ccncc1Nc1ccc(I)cc1F [PIMASERTIB]	> 30 µM (inactive)
> 30 µM (inactive)	> 30 µM (inactive)	> 30 µM (inactive)	> 30 µM (inactive)	> 30 µM (inactive)	> 30 µM (inactive)	> 30 µM (inactive)	> 30 µM (inactive)	> 30 µM (inactive)	> 30 µM (inactive)	> 30 µM (inactive)	C#Cc1cccc(Nc2ncnc3cc4c(cc23)OCCOCCOCCO4)c1 [ICOTINIB]	> 30 µM (inactive)

Compound	Kd [2]	Kd [3]	Kd [4]	Kd [5]	Kd [6]	Kd [7]	Kd [8]	Kd [9]	Kd [10]	Kd [11]	Kd [12]	Kd [1]
C=CC(=O)Nc1cc(Nc2nccc(-c3cn(C)c4ccccc34)n2)c(OC)cc1N(C)CCN(C)C [OSIMERTINIB]	> 30 µM (inactive)	> 30 µM (inactive)	> 30 µM (inactive)	> 30 µM (inactive)	> 30 µM (inactive)	> 30 µM (inactive)	> 30 µM (inactive)	> 30 µM (inactive)	> 30 µM (inactive)	> 30 µM (inactive)	> 30 µM (inactive)	> 30 µM (inactive)
Cc1c(Cn2c(C)nc3c(C(=O)O)cc(N4CCOCC4)cc32)cccc1C(F)(F)F [GSK-2636771]	> 30 µM (inactive)	> 30 µM (inactive)	> 30 µM (inactive)	> 30 µM (inactive)	> 30 µM (inactive)	> 30 µM (inactive)	> 30 µM (inactive)	> 30 µM (inactive)	> 30 µM (inactive)	> 30 µM (inactive)	> 30 µM (inactive)	> 30 µM (inactive)
